Assay [1] relates to HeLa cells. As to the kind of experiment: Housekeeping endocytosis assay (BODIPY-FL dextran internalization). The format is cell-based.
In assay [2] the test system is rat thoracic aorta. Put plainly: Ex-vivo rat thoracic aorta constriction-relaxation model. Particulars: 10 μM compound 30 min, then 40 nM endothelin; normalized to noradrenalin contraction. How it is done:
As previously described, male rats (Sprague-Dawley) weighing 300 to 400 g were anesthetized with sodium pentobarbital (50 mg/kg i.p.), and thoracic aorta was removed, cleaned of fat and connective tissue placed in Krebs bicarbonate solution (118 mM NaCl; 4.7 mM KCl; 25 mM NaHCO3; 2.5 mM CaCl2; 1.2 mM KH2PO4; 1.2 mM MgSO4; 11 mM glucose) bubbled with 95% O2 and 5% CO2^39,40. The whole aorta was cut along a close spiral to produce a strip of 5 to 6 cm long. The strip was mounted on a Grass force displacement transducer at a tension of 2 grams and placed in a 25 ml chamber maintained at 34° C. Following mounting of aorta strip on transducer, noradrenalin was added to a final concentration of 5 μM and increase of tension-constriction was recorded for 20 min. Subsequently, the noradrenalin was washed with 16 chamber volumes (400 ml) until tension returned to 2 grams. […] Tension was recorded throughout the experiment. […]
To correlate the effect of kinase inhibitors that perturb ETAR intracellular pathway and cAMP production to a physiological relevance we have examined compound effect(s) on the ex-vivo rat thoracic aorta constriction-relaxation model (^39, 40). […] Contractile responses were assessed after aortal strips were treated with 10 μM Gö6976, 10 μM Erbstatin A or 10 μM H-89 for 30 minutes followed by treatment with Endothelin. […]

The subject of assay [3] is ETAR: GFP expressing cells. Put plainly: Single cell visual screening: red fluorescent dextran internalization in ETAR:GFP expressing cells. Particulars: 10 μM compound, 10 min red fluorescent dextran. The format is cell-based. How it is done: Single cell differential screening. […] (b) 10 μM Erbstatin A. (c) 10 μM H-89 (d) DMSO (e) 40 nM endothelin-1 alone. Confocal images are from a 1 μm Z section. […] Scale bar 5 μm.
The effect of the 3 kinase inhibitors affecting ETAR on receptor activation and housekeeping endocytosis were simultaneously imaged in ETAR: GFP expressing cells by internalization of red fluorescent dextran (FIG. 3). […] Thus, inhibition of protein kinase A and C second messenger activated kinases potently altered ETAR GPCR internalization but left housekeeping endocytosis unaffected.

Assay [4] concerns M1 muscarinic acetylcholine receptor (M1AR). As to the kind of experiment: Agonist-induced M1AR endocytosis in polarized MDCK cells. The format is cell-based. The note with it: 10 μM compound, vs untreated agonist stimulated control. The protocol: Sensitivity of GPCR internalization to kinase inhibitors acting on ETAR endocytosis. (a) Fully polarized MDCK cells expressing the M1AR were treated with 100 nM carbachol, DMSO, or compounds then fixed and stained with antibodies against the M1AR epitope tag (green) or the GP130 apical plasma marker (red). Cells were pretreated with compounds: 10 μM RO 31 8220, 10 μM Erbstatin A, 10 μM H-89, with 100 nM agonist, agonist alone or DMSO. Scale bar: 20 μm. (b) HEK293T cells expressing a human kappa Opioid receptor fusion to the green fluorescent protein were treated with 10 μM Gö 6976, 10 μM Erbstatin A, 10 μM H-89, 10 μM KT-5720 with 300 nM agonist, agonist alone or DMSO. Scale bar 20 μm. (c) Quantification of kappa Opioid receptor internalization (endosomes/cell) after compound treatment and agonist treatment.
If the involvement of second messenger kinases in agonist induced endocytosis of the ETAR was a generic feature of Gq coupled receptor activation, it may be expected that the kinase inhibitors affecting ETAR endocytosis may have effects on related receptors or related receptors in other cell lines. The kinase inhibitors that disrupted agonist induced ETAR endocytosis were assayed on agonist-induced endocytosis of the Gq/11 coupled M1 muscarinic acetylcholine receptor (M1AR). […]

Assay [5] concerns human kappa Opioid receptor. It is filed as cell-based.
Assay [6] has as its system cAMP. As to the kind of experiment: cAMP production after ET-1 stimulation, indirect ELISA. The format is cell-based. The note with it: for effect on intra-cellular cAMP after ET-1 stimulation: 10 μM compound, 40 nM ET-1. The protocol: cAMP production requires sequential G-protein activation.
All fine chemicals were purchased from Sigma-Aldrich. Fluorophores and their reactive forms were purchased from Molecular Probes (Eugene, USA). DRAQ5 was from BioStatus (Shepshed, UK). 40 kDa BODIPY-F1-dextran was synthesized from amino dextran using standard protocols. […] Kinase and phosphatase inhibitors were purchased as 95-99% pure 10 mM stock solutions in dimethylsulfoxide or water (Biomol Hamburg, Germany). Stock solutions and formatted assay plates were stored at −20° C. cAMP was measured by indirect ELISA (R & D systems, MN USA) following the manufacturers protocol for cAMP acetylation, and a cAMP standard.
GPCRs can couple to multiple G-proteins and switching between G-proteins is generally mediated by protein phosphorylation^36-38. We assessed the importance of Gq coupling and PKC activity in the generation of intra-cellular cAMP through Gs following agonist stimulation.

Where [7] appears, read: 10 μM compound, fluorescent dextran uptake.

Consider 13 compounds from patent publication US20080138834A1, “Cellular antagonists of GPCR physiology” (Institute Pasteur Korea, priority 2006, published 2008).

“Also recorded” adds a separate entry of the source. Where two headings read alike, the source gives them in different places.

Regarding `CC(C)(C)c1cc(/C=C(\C#N)C(N)=S)cc(C(C)(C)C)c1O` [AG-879], the “effect on housekeeping endocytosis (integrated intensity per cell)” value (“effect … (integrated intensity per cell)” below) in assay [1] (10 μM compound, data not shown) was “reduced”. Further, the “effect on housekeeping endocytosis (number of endosomes)” value (“effect … (number of endosomes)” for short) in assay [1] (setting [7]) is “reduced the number of endosomes”.
As to `CN(C)CCCn1cc(C2=C(c3c[nH]c4ccccc34)C(=O)NC2=O)c2ccccc21` [GF 109203X], in assay [1], the “effect … (integrated intensity per cell)” value is “reduced” and the “effect … (number of endosomes)” value is recorded as “reduced the number of endosomes; also recorded: blocked”.
For `Cn1c2ccccc2c2c3c(c4c5ccccc5n(CCC#N)c4c21)CNC3=O` [Gö 6976], in assay [2], the “endothelin dependent aortal strip contraction vs endothelin alone” value was “increased contraction”.
On to `CC1CNCCN1S(=O)(=O)c1cccc2cnccc12` (stereo not shown) [H7], for which the “effect … (number of endosomes)” value in assay [1] (setting [7]) was “no significant effect”.
In the case of `O=S(=O)(NCCNC/C=C/c1ccc(Br)cc1)c1cccc2cnccc12` [H-89], the “effect … (number of endosomes)” value in assay [1] (setting [7]) is on record as “None of these compounds had a measurable effect”. In assay [3], the “housekeeping endocytosis, single cell imaging” value was “unaltered”. For the same compound, the “agonist-induced M1AR endocytosis” value in assay [4] is recorded as “unaffected”. Further, the “effect on kOPr internalization” value in assay [5] is on record as “moderate”. The “effect on intra-cellular cAMP after ET-1 stimulation” value in assay [6] is “markedly increased cAMP”. The “increase of cellular cAMP” value in assay [6] (PKA inhibition with H-89, endothelin stimulated) was “two-fold”. For the same compound, in assay [2], the “endothelin dependent aortal strip contraction vs endothelin alone” value is reported as “significantly lower constriction”.
Take `CCCCCCOC(=O)[C@]1(O)C[C@@H]2O[C@@]1(C)n1c3ccccc3c3c4c(c5c6ccccc6n2c5c31)C(=O)NC4` [KT5720]: the “effect on kOPr internalization” value in assay [5] was “pronounced stimulation of receptor uptake”.
Take `CCCCCCCCCCCCCCCC(=O)OC(CC(=O)O)C[N+](C)(C)C.[Cl-]` (stereo not drawn) [Palmitoyl DL carnitine chloride]: the “effect … (number of endosomes)” value in assay [1] (setting [7]) was “no significant effect”.
With `Cn1cc(C2=C(c3cn(CCCSC(=N)N)c4ccccc34)C(=O)NC2=O)c2ccccc21` [Ro 31-8220], the “effect … (number of endosomes)” value in assay [1] (setting [7]) is “None of these compounds had a measurable effect”; in assay [1] (10 μM compound, fluorescent dextran uptake, listed as Ro 31 8220) it was “no significant effect”. For the same compound, the “housekeeping endocytosis, single cell imaging” value in assay [3] is on record as “unaffected”. In addition, the “agonist-induced M1AR endocytosis” value in assay [4] is given as “unaffected”. In assay [6], the “effect on intra-cellular cAMP after ET-1 stimulation” value is recorded as “blocked cAMP production”.
Regarding `CC[C@H](C)[C@H](NC(=O)[C@H](CC(=O)O)NC(=O)[C@H](CC(C)C)NC(=O)[C@H](Cc1c[nH]cn1)NC(=O)[C@@H]1CSSC[C@H](N)C(=O)N[C@@H](CO)C(=O)N[C@H]2CSSC[C@H](NC(=O)[C@H](CCC(=O)O)NC(=O)[C@H](CCCCN)NC(=O)[C@H](CC(=O)O)NC(=O)[C@H](CCSC)NC(=O)[C@H](CC(C)C)NC(=O)[C@H](CO)NC(=O)[C@H](CO)NC2=O)C(=O)N[C@@H](C(C)C)C(=O)N[C@@H](Cc2ccc(O)cc2)C(=O)N[C@@H](Cc2ccccc2)C(=O)N1)C(=O)N[C@H](C(=O)N[C@@H](Cc1c[nH]c2ccccc12)C(=O)O)[C@@H](C)CC` [endothelin-1], the “intra-cellular cAMP after stimulation with ET-1 alone” value in assay [6] (40 nM ET-1, after 10 min) was “robust increase in intra-cellular cAMP”. The “time of peak in cAMP production following stimulation” value in assay [6] (endothelin stimulation) came out at 20 min.
For the compound `Cc1cc(O)c2c(=O)c3c(O)cc(O)c4c5c(O)cc(O)c6c(=O)c7c(O)cc(C)c8c1c2c(c34)c(c78)c65` [hypericine], the “housekeeping endocytosis compared to control” value in assay [1] came to 0.2 fold.
Consider `CC(=O)c1c(O)c(C)c(O)c(Cc2c(O)c3c(c(C(=O)/C=C/c4ccccc4)c2O)OC(C)(C)C=C3)c1O` [rottlerin], for which the “effect … (number of endosomes)” value in assay [1] is “no effect”.
As for `CN[C@@H]1C[C@H]2O[C@@](C)([C@@H]1OC)n1c3ccccc3c3c4c(c5c6ccccc6n2c5c31)C(=O)NC4` [staurosporine], the “effect … (integrated intensity per cell)” value in assay [1] (10 μM compound, data not shown) is “reduced”. The “effect … (number of endosomes)” value in assay [1] (setting [7]) is recorded as “reduced the number of endosomes; also recorded: inhibited”.
With `CC(C)(C)c1cc(C=C(C#N)C#N)cc(C(C)(C)C)c1O` [tyrphostin 9], the “effect … (integrated intensity per cell)” value in assay [1] (10 μM compound, data not shown) is “reduced”. Also, the “effect … (number of endosomes)” value in assay [1] (setting [7]) was “reduced the number of endosomes”.
